With `O=c1oc2cc3c(cc2cc1-c1cn2cc(Cl)ccc2n1)CCCN3CCF` [Example 2, 3-(6-Chloro-imidazo[1,2-a]pyridin-2-yl)-8-(2-fluoro-ethyl)-5,6,7,8-tetrahydro-1-oxa-8-aza-anthracen-2-one] the melting point was 290 °C (dec.).

From patent US7569337B2, “Coumarines useful as biomarkers” (Novartis AG, priority 2002, dated 2009)
